Data taken from paper PMC7179183, “Design of Biphenyl-Substituted Diarylpyrimidines with a Cyanomethyl Linker as HIV-1 NNRTIs via a Molecular Hybridization Strategy” (Molecules, 2020).
Read-outs that look alike come from different tables or passages of the source.

Assays:
WT HIV-1 (strain IIIB) = test: microbe, parasite or virus in culture; format: cell-based; conditions: MT-4 cells, protection against virus-induced cytopathicity by 50%, mean of at least three experiments, read-out: EC50 HIV-1 IIIB
Protocol: (§1) The newly synthesized compounds were evaluated for their potency and cytotoxicity against the WT HIV-1 (strain IIIB) in MT-4 cells using the MTT method. The biological evaluation results are represented as EC50 values (anti-HIV-1 activity), CC50 values (cytotoxicity), and SI values (selectivity index, CC50/EC50 ratio).

[1] = system: L100I mutant HIV-1 strain; test: Anti-HIV-1 activity against L100I mutant strain in MT-4 cells; format: cell-based
[2] = system: Y188L mutant HIV-1 strain; test: Anti-HIV-1 activity against Y188L mutant strain in MT-4 cells; format: cell-based
[3] = system: K103N + Y181C double RT mutant HIV-1 strain; test: Anti-HIV-1 activity against K103N + Y181C double mutant strain in MT-4 cells; format: cell-based
[4] = system: E138K mutant HIV-1 strain; test: Anti-HIV-1 activity against E138K mutant strain in MT-4 cells; format: cell-based
[5] = system: Y181C mutant HIV-1 strain; test: Anti-HIV-1 activity against Y181C mutant strain in MT-4 cells; format: cell-based
[6] = system: F227L + V106A double RT mutant HIV-1 strain; test: Anti-HIV-1 activity against F227L + V106A double mutant strain in MT-4 cells; format: cell-based
[7] = system: K103N mutant HIV-1 strain; test: Anti-HIV-1 activity against K103N mutant strain in MT-4 cells; format: cell-based
MT-4 cells = test: Cytotoxicity in uninfected MT-4 cells, MTT method; format: cell-based; conditions: uninfected MT-4 cells; viability reduced by 50%
Protocol: as §1

WT HIV-1 RT = WT HIV-1 RT (Human immunodeficiency virus type 1 group M subtype B, UniProt P03366); test: Enzymatic assay against WT HIV-1 RT; conditions: read-out: IC50 WT HIV-1 RT polymerase activity
Protocol: The enzymatic assay against WT HIV-1 RT was conducted for most compounds (Table 2).

[8] = Cytotoxicity in uninfected MT-4 cells, MTT method; format: cell-based; conditions: human
Protocol: as §1

[9] = MT-4 cells, read-out: EC50 L100I
[10] = MT-4 cells, read-out: EC50 Y188L
[11] = MT-4 cells, read-out: EC50 K103N + Y181C
[12] = MT-4 cells, read-out: EC50 E138K
[13] = MT-4 cells, read-out: EC50 Y181C
[14] = MT-4 cells, read-out: EC50 F227L + V106A
[15] = MT-4 cells, read-out: EC50 K103N

Compound | EC50 (WT HIV-1 (strain IIIB)) [µM] | EC50 [1, 9] [µM] | EC50 [2, 10] [µM] | EC50 [3, 11] [µM] | EC50 [4, 12] [µM] | EC50 [5, 13] [µM] | EC50 [6, 14] [µM] | EC50 [7, 15] [µM] | CC50 (MT-4 cells) [µM] | IC50 (WT HIV-1 RT) [µM] | EC50 (WT HIV-1 (strain IIIB); Human immunodeficiency virus 1, IIIB, MT4) [µM] | EC50 ([1]; Human immunodeficiency virus 1, MT4, read-out: EC50 L100I) [µM] | EC50 ([2]; Human immunodeficiency virus 1, MT4, read-out: EC50 Y188L) [µM] | EC50 ([3]; Human immunodeficiency virus 1, MT4, read-out: EC50 K103N + Y181C) [µM] | EC50 ([4]; Human immunodeficiency virus 1, MT4, read-out: EC50 E138K) [µM] | EC50 ([5]; Human immunodeficiency virus 1, MT4, read-out: EC50 Y181C) [µM] | EC50 ([6]; Human immunodeficiency virus 1, MT4, read-out: EC50 F227L + V106A) [µM] | EC50 ([7]; Human immunodeficiency virus 1, MT4, read-out: EC50 K103N) [µM] | CC50 [8] [µM]
N#Cc1ccc(Nc2nccc(C(C#N)c3ccc(-c4ccccc4)cc3)n2)cc1 (racemic) [Compound 10a, (±)-4-((4-([1,1′-biphenyl]-4-yl(cyano)methyl)pyrimidin-2-yl)amino)benzonitrile] | 2.9 ± 1.89 | > 30.8 | > 30.8 | > 30.8 | ≥ 12.6 | > 30.8 | > 30.8 | > 30.8 | 30.8 ± 8.57 |  |  |  |  |  |  |  |  |  | 
N#Cc1ccc(Nc2nccc(C(C#N)c3ccc(-c4ccccc4)c(F)c3)n2)cc1 (racemic) [Compound 10b, (±)-4-((4-(cyano(2-fluoro-[1,1′-biphenyl]-4-yl)methyl)pyrimidin-2-yl)amino)benzonitrile] | 4.96 ± 0.56 | ≥ 27.3 | > 27.3 | > 27.3 | 9.29 ± 1.37 | > 27.3 | > 27.3 | > 27.3 | 27.3 ± 5.85 | 0.46 ± 0.162 |  |  |  |  |  |  |  |  | 
N#Cc1ccc(Nc2nccc(C(C#N)c3ccc(-c4ccccc4)cc3F)n2)cc1 (racemic) [Compound 10c, (±)-4-((4-(cyano(3-fluoro-[1,1′-biphenyl]-4-yl)methyl)pyrimidin-2-yl)amino)benzonitrile] | 0.33 ± 0.07 | ≥ 10.3 | > 23.8 | > 23.8 | 1.69 ± 0.17 | 6.37 ± 0.78 | > 23.8 | 10.3 ± 0.85 | 23.8 ± 4.48 | 0.062 ± 0.024 |  |  |  |  |  |  |  |  | 
Cc1ccccc1-c1ccc(C(C#N)c2ccnc(Nc3ccc(C#N)cc3)n2)c(F)c1 (racemic) [Compound 10d, (±)-4-((4-(cyano(3-fluoro-2′-methyl-[1,1′-biphenyl]-4-yl)methyl)pyrimidin-2-yl)amino)benzonitrile] | 0.43 ± 0.21 | 3.67 ± 0.54 | > 30.1 | > 30.1 | 2.5 ± 0.33 | 4.89 ± 1.07 | > 30.1 | 8.14 ± 1.82 | 30.1 ± 1.94 | 0.074 ± 0.024 |  |  |  |  |  |  |  |  | 
Cc1cccc(-c2ccc(C(C#N)c3ccnc(Nc4ccc(C#N)cc4)n3)c(F)c2)c1 (racemic) [Compound 10e, (±)-4-((4-(cyano(3-fluoro-3′-methyl-[1,1′-biphenyl]-4-yl)methyl)pyrimidin-2-yl)amino)benzonitrile] | 0.43 ± 0.07 | 9.14 ± 3.61 | > 26.9 | > 26.9 | 3.59 ± 1.03 | > 26.9 | > 26.9 | > 26.9 | 26.9 ± 3.78 | 0.101 ± 0.059 |  |  |  |  |  |  |  |  | 
Cc1ccc(-c2ccc(C(C#N)c3ccnc(Nc4ccc(C#N)cc4)n3)c(F)c2)cc1 (racemic) [Compound 10f, (±)-4-((4-(cyano(3-fluoro-4′-methyl-[1,1′-biphenyl]-4-yl)methyl)pyrimidin-2-yl)amino)benzonitrile] | 0.43 ± 0.09 | 6.12 ± 1.62 | > 30.9 | > 30.9 | 2.55 ± 0.17 | 9.27 ± 1.14 | > 30.9 | 8.08 ± 2.74 | 30.9 ± 2.76 | 0.093 ± 0.051 |  |  |  |  |  |  |  |  | 
COc1ccccc1-c1ccc(C(C#N)c2ccnc(Nc3ccc(C#N)cc3)n2)c(F)c1 (racemic) [Compound 10g, (±)-4-((4-(cyano(3-fluoro-2′-methoxy-[1,1′-biphenyl]-4-yl)methyl)pyrimidin-2-yl)amino)benzonitrile] | 0.61 ± 0.16 | 4.27 ± 0.46 | > 30 | > 30 | 3.66 ± 0.19 | 7.79 ± 1.67 | > 30 | 9.78 ± 1.6 | 30.1 ± 2.31 | 0.233 ± 0.125 |  |  |  |  |  |  |  |  | 
COc1cccc(-c2ccc(C(C#N)c3ccnc(Nc4ccc(C#N)cc4)n3)c(F)c2)c1 (racemic) [Compound 10h, (±)-4-((4-(cyano(3-fluoro-3′-methoxy-[1,1′-biphenyl]-4-yl)methyl)pyrimidin-2-yl)amino)benzonitrile] | 1.5 ± 0.24 | 8.57 ± 1.26 | > 30.7 | > 30.7 | 6.16 ± 1.47 | > 30.7 | > 30.7 | > 30.7 | 30.7 ± 2.09 | 0.219 ± 0.171 |  |  |  |  |  |  |  |  | 
COc1ccc(-c2ccc(C(C#N)c3ccnc(Nc4ccc(C#N)cc4)n3)c(F)c2)cc1 (racemic) [Compound 10i, (±)-4-((4-(cyano(3-fluoro-4′-methoxy-[1,1′-biphenyl]-4-yl)methyl)pyrimidin-2-yl)amino)benzonitrile] | 0.51 ± 0.42 | 31.6 ± 7.35 | 50.1 ± 6.52 | > 183 | 5.51 ± 1.06 | 8.57 ± 1.21 | 52.5 | 27 ± 3 | 183 |  |  |  |  |  |  |  |  |  | 
N#Cc1ccc(Nc2nccc(C(C#N)c3ccc(-c4ccccc4F)cc3F)n2)cc1 (racemic) [Compound 10j, (±)-4-((4-(cyano(2′,3-difluoro-[1,1′-biphenyl]-4-yl)methyl)pyrimidin-2-yl)amino)benzonitrile] | 0.21 ± 0.05 | 6.06 ± 2.46 | > 27.9 | > 27.9 | 1.03 ± 0.17 | 3.4 ± 0.48 | > 27.9 | 3.93 ± 0.65 | 27.9 ± 3.56 | 0.058 ± 0.032 |  |  |  |  |  |  |  |  | 
N#Cc1ccc(Nc2nccc(C(C#N)c3ccc(-c4cccc(F)c4)cc3F)n2)cc1 (racemic) [Compound 10k, (±)-4-((4-(cyano(3,3′-difluoro-[1,1′-biphenyl]-4-yl)methyl)pyrimidin-2-yl)amino)benzonitrile] | 0.56 ± 0.19 | 9.29 ± 0.57 | > 30.7 | > 30.7 | 3.36 ± 0.4 | 9.15 ± 0.87 | > 30.7 | > 30.7 | 30.7 ± 1.79 | 0.188 ± 0.172 |  |  |  |  |  |  |  |  | 
N#Cc1ccc(Nc2nccc(C(C#N)c3ccc(-c4ccc(F)cc4)cc3F)n2)cc1 (racemic) [Compound 10l, (±)-4-((4-(cyano(3,4′-difluoro-[1,1′-biphenyl]-4-yl)methyl)pyrimidin-2-yl)amino)benzonitrile] | 0.18 ± 0.16 | 6.9 ± 1.76 | > 25.6 | > 25.6 | 0.98 ± 0.13 | 5.1 ± 0.51 | > 25.6 | 6.87 ± 1.17 | 25.6 ± 3.58 |  |  |  |  |  |  |  |  |  | 
N#Cc1ccc(Nc2nccc(C(C#N)c3ccc(-c4ccccc4Cl)cc3F)n2)cc1 (racemic) [Compound 10m, (±)-4-((4-((2′-chloro-3-fluoro-[1,1′-biphenyl]-4-yl)(cyano)methyl)pyrimidin-2-yl)amino)benzonitrile] | 0.28 ± 0.04 | 5.61 ± 1.51 | > 22.5 | > 22.5 | 2.43 ± 0.5 | 4.53 ± 1.47 | > 22.5 | 5.34 ± 0.93 | 22.5 ± 4.7 | 0.074 ± 0.024 |  |  |  |  |  |  |  |  | 
N#Cc1ccc(Nc2nccc(C(C#N)c3ccc(-c4cccc(Cl)c4)cc3F)n2)cc1 (racemic) [Compound 10n, (±)-4-((4-((3′-chloro-3-fluoro-[1,1′-biphenyl]-4-yl)(cyano)methyl)pyrimidin-2-yl)amino)benzonitrile] | 0.39 ± 0.1 | 8.31 ± 1.2 | > 27.6 | > 27.6 | 2.67 ± 0.21 | 9.19 ± 2.05 |  | 7.2 ± 0.89 | 27.6 ± 4.05 | 0.171 ± 0.132 |  |  |  |  |  |  |  |  | 
N#Cc1ccc(Nc2nccc(C(C#N)c3ccc(-c4ccc(Cl)cc4)cc3F)n2)cc1 (racemic) [Compound 10o, (±)-4-((4-((4′-chloro-3-fluoro-[1,1′-biphenyl]-4-yl)(cyano)methyl)pyrimidin-2-yl)amino)benzonitrile] | 0.18 ± 0.14 | 5.28 ± 1.29 | > 27.5 | > 27.5 | 1.5 ± 0.28 | 7.49 ± 1.64 | > 27.5 | 7.32 ± 0.87 | 27.5 ± 7.3 |  |  |  |  |  |  |  |  |  | 
N#Cc1ccc(Nc2nccc(C(C#N)c3ccc(-c4ccc(C#N)cc4)cc3F)n2)cc1 (racemic) [Compound 10p, (±)-4′-(cyano(2-((4-cyanophenyl)amino)pyrimidin-4-yl)methyl)-3′-fluoro-[1,1′-biphenyl]-4-carbonitrile] | 0.027 ± 0.015 | 1.21 ± 0.21 | 9.81 ± 1.3 | > 36.4 | 0.17 ± 0.03 | 0.87 ± 0.23 |  | 0.9 ± 0.27 | 36.4 | 0.059 ± 0.034 |  |  |  |  |  |  |  |  | 
Nc1ccn([C@@H]2CS[C@H](CO)O2)c(=O)n1 [Compound 3TC, lamivudine, reference compound] |  |  |  |  |  |  |  |  |  |  | 7.88 ± 3.15 | 1.96 ± 0.29 | 3.42 ± 0.95 | 5.5 ± 1.31 | 5.06 ± 0.9 | 4.74 ± 1.31 | 2.69 ± 0.87 | 3.98 ± 0.76 | > 87.2
